Measurements from patent publication US20060004019A1, “Steroid sparing agents and methods of using same” (priority 2004, published 2006).

Assays:
[1] = tested on: Lewis X Brown Norway F1 hearts transplanted to Lewis recipients; test: Rat cardiac allograft model, Allograft Study 1 (summary across three studies); assay type: in vivo; conditions: for absolute cardiac allograft survival (last day of graft survival): vehicle day +9
Text: Allograft rejection is defined as the expression of an immune reaction of the recipient, against foreign antigens of the transplanted tissue. This reaction is mediated by T lymphocytes. Cell adhesion events are of critical importance in the T-cell recognition of alloantigens, the trafficking of recipient immune and inflammatory cells into the graft, and the execution of cell-mediated effector functions. […] This beneficial therapeutic effect correlates with decreased infiltration by α4β1 positive cells, deposition of CS1-FN, and endothelial staining for VCAM-1, as determined by immunohistology/RNAse protection assay.
To further evaluate the therapeutic potential of α4β1 targeted therapy in transplantation rejection, three studies were conducted in a well-defined rat cardiac transplant model. The following report summarizes the data across all three studies.

rat cardiac allografts [2] = test: Rat cardiac allograft study, Allograft Study 3 (Table 21); assay type: in vivo; conditions: for number of surviving grafts within each group / percent of surviving grafts within a group: s.c., GG5/3 3 mg/kg, compound 30 mg/kg
Protocol: Cardiac allografts were established. […] A total of 20 allografts, amongst 4 groups, were evaluated in the study.

rat cardiac allografts [3] = test: Rat cardiac allograft study, Allograft Study 2 (Table 20); conditions: for number of surviving grafts within each group: s.c., GG5/3 3 mg/kg, compounds 30 mg/kg;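 as to all read-outs here: lewis x Brown Norway F1 hearts grafted abdominally into male Lewis rats, palpated daily, rejection meaning complete loss of heartbeat, day 0 being surgery day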
Protocol: Hearts from Lewis X Brown Norway F1 hybrids were transplanted to the abdominal great vessels of Lewis recipients using standard microvascular techniques. Both rat strains were male inbred rats, weighing 200-300 g. Food and water was available at all times except during surgical and dosing procedures. The day of transplantation was noted as day 0. […] Allograft survival in the rats was evaluated by daily palpation of the transplanted heart through the recipient's flank. Rejection was taken as the day of complete cessation of the graft's heart beat. Upon determination of rejection, the abdomen of the recipient was incised and retracted to confirm cessation of the heart beat in the transplanted heart. If cessation of the heart beat was not confirmed the abdomen was surgically closed, and the grafted heart was evaluated daily.
Cardiac allografts were established. Dosing of compounds began on day 0, prior to transplantation and continued through day +10. […] The vehicle control, 10% ethanol/corn oil, was administered s.c., every 12 hours, day 0 through day +10. The antibody, GG5/3 in 0.9% saline, was administered at 3 mg/kg, s.c., on day 0, +3, +7 and +10. All GG5/3 animals received twice daily s.c. injections of 0.9% saline, every 12 hours, throughout day 0 through day +10. The vehicle control, 0.9% saline, was administered daily, s.c., day 0 through day +10. All dosing solutions were formulated daily at a constant dose volume of 5 ml/kg. The site of injection was rotated at each injection through four possible sites: right and left fore flank, right and left rear flank. A total of 28 allografts, amongst 5 groups, were evaluated in the study. Group 1, consisted of 6 animals treated with the monoclonal antibody, GG5/3. […] Allograft survival was evaluated by daily palpation of the transplanted heart through the recipient's flank. Rejection was taken as the day of complete cessation of graft's heart beat. Upon determination of rejection, the abdomen of the recipient was incised to confirm cessation of the heart beat in the transplanted heart. If cessation of the graft's heart beat was not confirmed the abdomen was surgically closed, and the graft was evaluated daily.

rat cardiac allografts [4] = test: Rat cardiac allograft study, Allograft Study 4 (Table 22);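 also: heterotopic abdominal heart transplants from Lewis × Brown Norway F1 donors into male Lewis rats, graft beating checked daily by flank palpation, rejection defined as complete stop of heartbeat, transplant day 0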; conditions: 30 mg/kg s.c. every 12 h, day -2 to +10
Protocol: Hearts from Lewis X Brown Norway F1 hybrids were transplanted to the abdominal great vessels of Lewis recipients using standard microvascular techniques. Both rat strains were male inbred rats, weighing 200-300 g. Food and water was available at all times except during surgical and dosing procedures. The day of transplantation was noted as day 0. Twelve hours following the last dose approximately 1 ml of blood was collected into lithium/heparin anti-coagulant tubes. If any graft was rejected prior to the last day of dosing, blood samples were taken 12 hours after dosing on the day that graft rejection was noted. All blood samples were centrifuged at 3000 rpm for 10 minutes and the plasma was harvested, frozen on dry ice and stored frozen at −20 C prior to analysis. Allograft survival in the rats was evaluated by daily palpation of the transplanted heart through the recipient's flank. Rejection was taken as the day of complete cessation of the graft's heart beat. Upon determination of rejection, the abdomen of the recipient was incised and retracted to confirm cessation of the heart beat in the transplanted heart. If cessation of the heart beat was not confirmed the abdomen was surgically closed, and the grafted heart was evaluated daily.
Cardiac allografts were established. Dosing of compounds began on day −2, 2 days prior to transplantation and continued through day +10. […] The vehicle control, 0.9% saline, pH adjusted to a value of 5, to match the dosing solution containing the N-[N-(3-pyridinesulfonyl)-L-3,3-dimethyl-4-thiaprolyl]-0-[1-methylpiperazin-4-ylcarbonyl]-L-tyrosine isopropyl ester, was administered via the same route, i.e. every 12 hours, day −2 through day +10. The antibody, GG5/3 in 0.9% saline, was administered at 3 mg/kg, s.c., on day 0, +3, +7 and +10. All GG5/3 animals received twice daily s.c. injections of 0.9% saline, every 12 hours, from day −2 through day +10. The vehicle control, 0.9% saline, was administered daily, s.c., day 0 through day +10. All dosing solutions were formulated daily at a constant dose volume of 5 ml/kg. The site of injection was rotated at each injection through four possible sites: right and left fore flank, right and left rear flank. A total of 21 allografts, amongst 5 groups, were evaluated in the study. […] Two animals within the 0.9% saline group received saline adjusted to a pH a value of 5. (The pH value of the N-[N-(3-pyridinesulfonyl)-L-3,3-dimethyl-4-thiaprolyl]-0-[1-methylpiperazin-4-ylcarbonyl]-L-tyrosine isopropyl ester dosing solution.) The remaining two animals received saline of pH 7. Group 2 consisted of 6 animals treated with the monoclonal antibody, GG5/3. […] Twelve hours following the last dose approximately 1 ml of blood was collected into lithium/heparin anti-coagulant tubes. If any graft was rejected prior to the last day of dosing, blood samples were taken 12 hours after dosing on the day that graft rejection was noted. All samples were centrifuged at 3000 rpm for 10 minutes and the plasma was harvested, frozen on dry ice and stored frozen at −20 C prior to dispatch for analysis. Allograft survival in the rats was evaluated by daily palpation of the transplanted heart through the recipient's flank. Rejection was taken as the day of complete cessation of graft's heart beat. Upon determination of rejection, the abdomen of the recipient was incised to confirm cessation of the heart beat in the transplanted heart. If cessation of the heart beat was not confirmed the abdomen was surgically closed, and the graft was evaluated daily.

rat cardiac allografts [5] = test: Rat cardiac allograft study, Allograft Study 5, dose response (Table 23); assay type: in vivo

For Cc1ccc(S(=O)(=O)N2CCC[C@H]2C(=O)N[C@@H](Cc2ccc(OC(=O)N3CCN(CCO)CC3)cc2)C(=O)OC(C)(C)C)cc1, the melting point was 158 to 160 °C.

For CC(C)OC(=O)[C@H](Cc1ccc(OC(=O)N(C)C)cc1)NC(=O)[C@H]1N(S(=O)(=O)c2cnn(C)c2)CSC1(C)C, the “absolute cardiac allograft survival (last day of graft survival)” value [1] was 37 day, the “number of surviving grafts within each group” value (“number” below) (rat cardiac allografts [2]; Day 0) was 6 and the “percent of surviving grafts within a group” value (“percent” below) (rat cardiac allografts [2]; Day 0) was 100%. The “number” value (rat cardiac allografts [2]; Day 1) was 6, the “percent” value (rat cardiac allografts [2]; Day 1) was 100% and the “number” value (rat cardiac allografts [2]; Day 2) was 6. The “percent” value (rat cardiac allografts [2]; Day 2) was 100%, the “number” value (rat cardiac allografts [2]; Day 3) was 6 and the “percent” value (rat cardiac allografts [2]; Day 3) was 100%. The “number” value (rat cardiac allografts [2]; Day 4) was 6, the “percent” value (rat cardiac allografts [2]; Day 4) was 100% and the “number” value (rat cardiac allografts [2]; Day 5) was 6. For the same compound, the “percent” value (rat cardiac allografts [2]; Day 5) was 100%, the “number” value (rat cardiac allografts [2]; Day 6) was 6 and the “percent” value (rat cardiac allografts [2]; Day 6) was 100%. The “number” value (rat cardiac allografts [2]; Day 7) was 6, the “percent” value (rat cardiac allografts [2]; Day 7) was 100% and the “number” value (rat cardiac allografts [2]; Day 8) was 6. The “percent” value (rat cardiac allografts [2]; Day 8) was 100%, the “number” value (rat cardiac allografts [2]; Day 9) was 4 and the “percent” value (rat cardiac allografts [2]; Day 9) was 67%. For the same compound, the “number” value (rat cardiac allografts [2]; Day 10) was 4, the “percent” value (rat cardiac allografts [2]; Day 10) was 67% and the “number” value (rat cardiac allografts [2]; Day 11) was 3. For the same compound, the “percent” value (rat cardiac allografts [2]; Day 11) was 50%, the “number” value (rat cardiac allografts [2]; Day 12) was 3 and the “percent” value (rat cardiac allografts [2]; Day 12) was 50%. The “number” value (rat cardiac allografts [2]; Day 13) was 1, the “percent” value (rat cardiac allografts [2]; Day 13) was 16% and the “number” value (rat cardiac allografts [2]; Day 14) was 1. For the same compound, the “percent” value (rat cardiac allografts [2]; Day 14) was 16%, the “number” value (rat cardiac allografts [2]; Day 15) was 1 and the “percent” value (rat cardiac allografts [2]; Day 15) was 16%. For the same compound, the “number” value (rat cardiac allografts [2]; Day 16) was 1, the “percent” value (rat cardiac allografts [2]; Day 16) was 16% and the “number” value (rat cardiac allografts [2]; Day 17) was 0. The “percent” value (rat cardiac allografts [2]; Day 17) was 0%, the “number” value (rat cardiac allografts [2]; Day 18) was 0 and the “percent” value (rat cardiac allografts [2]; Day 18) was 0%. The “number” value (rat cardiac allografts [2]; Day 19) was 0, the “percent” value (rat cardiac allografts [2]; Day 19) was 0% and the “graft acceptance out to day” value (rat cardiac allografts [2]; compound 30 mg/kg s.c. every 12 h, day -2 to +10, GG5/3 3 mg/kg s.c. day 0, +3, +7, +10) was 16 days. For the same compound, the “number” value (rat cardiac allografts [3]; Day 0) was 6, the “number” value (rat cardiac allografts [3]; Day 1) was 6 and the “number” value (rat cardiac allografts [3]; Day 2) was 6. The “number” value (rat cardiac allografts [3]; Day 3) was 6, the “number” value (rat cardiac allografts [3]; Day 4) was 6 and the “number” value (rat cardiac allografts [3]; Day 5) was 6. The “number” value (rat cardiac allografts [3]; Day 6) was 6, the “number” value (rat cardiac allografts [3]; Day 7) was 6 and the “number” value (rat cardiac allografts [3]; Day 8) was 6. For the same compound, the “number” value (rat cardiac allografts [3]; Day 9) was 6, the “number” value (rat cardiac allografts [3]; Day 10) was 5 and the “number” value (rat cardiac allografts [3]; Day 11) was 3. For the same compound, the “number” value (rat cardiac allografts [3]; Day 12) was 3, the “number” value (rat cardiac allografts [3]; Day 13) was 2 and the “number” value (rat cardiac allografts [3]; Day 14) was 1. The “number” value (rat cardiac allografts [3]; Day 15) was 1, the “number” value (rat cardiac allografts [3]; Day 16) was 0 and the “graft survival (in words)” value (rat cardiac allografts [3]; compounds 30 mg/kg s.c. every 12 h, GG5/3 3 mg/kg s.c. day 0, +3, +7, +10) was “significant graft survival, resembling the results obtained from the GG5/3 group”. For the same compound, the “allograft acceptance compared with GG5/3” value (rat cardiac allografts [4]) was “significantly prolong allograft acceptance beyond the level obtain with GG5/3”, the “graft survival rate on day +19” value (rat cardiac allografts [4]) was “Fifty percent or greater” and the “longest surviving graft (one graft)” value (rat cardiac allografts [4]) was 37 days.

With CC(C)OC(=O)[C@H](Cc1ccc(OC(=O)N2CCN(C)CC2)cc1)NC(=O)[C@H]1N(S(=O)(=O)c2cccnc2)CSC1(C)C [Example 379] the “graft survival rate on day +14” value [1] was 66%, the “graft survival rate out to day +30” value [1] was 33% and the “absolute cardiac allograft survival (last day of graft survival)” value [1] was 41 day. For the same compound, the day rejection begins (rat cardiac allografts [5]; 3 mg/kg s.c. every 12 h) was 7 days, the “day rejection is completed” value (rat cardiac allografts [5]; 3 mg/kg s.c. every 12 h) was at most 10 days and the “protection against graft rejection” value (rat cardiac allografts [5]; 3 mg/kg s.c. every 12 h) was “did not provide any protection against graft rejection”. The day rejection begins (rat cardiac allografts [5]; 10 mg/kg s.c. every 12 h) was 8 days, the graft survival rate (rat cardiac allografts [5]; 10 mg/kg s.c. every 12 h, by day +22) was 20% and the “graft acceptance (in words)” value (rat cardiac allografts [5]; 30 mg/kg s.c. every 12 h) was “prolonged graft acceptance”. For the same compound, the graft survival rate (rat cardiac allografts [5]; 30 mg/kg s.c. every 12 h, day +22, study still in progress) was 83%, the “allograft acceptance compared with GG5/3” value (rat cardiac allografts [4]) was “significantly prolong allograft acceptance beyond the level obtain with GG5/3” and the “graft survival rate on day +19” value (rat cardiac allografts [4]) was “Fifty percent or greater”. The “longest surviving graft (one graft)” value (rat cardiac allografts [4]) was 41 days.
